In one series the test system is IH in a rat model. The note with it: perivascular administration; cited from earlier work.
The subject of the next series is CD68. The experiment in a line: Immunostaining of the inflammation marker CD68. It is filed as in vivo, Sprague-Dawley rats. The protocol:
(§1) Paraffin-embedded specimens were processed into 5-μm thick sections for immunostaining. The slides were deparaffinized and hydrated through series of xylenes and graded alcohol. Antigens were retrieved using citrate buffer for 2 hours at 80° C. in a high-pressure cooker. Endogenous peroxidase was blocked by incubation with 3% H2O2 for 10 min. Following application of a monoclonal antibody against either cleaved Caspase 3 (9661, Cell Signaling Technology, Inc., Danvers, MA) or CD68 (T-3003, BMA Biomedicls, Augst, Switzerland), ImmPRESS HRP Anti-Rabbit IgG (Peroxidase) Polymer Detection Kit (MP-7451, Vector Laboratories Inc., Burlingame, CA) was used as the secondary antibody. The staining intensity was visualized using ImmPACT DAB Peroxidase (HRP) Substrate (SK-4105, Vector Laboratories). Data values from 6 different portions were averaged for each animal, and averages from total animals in a group were used to calculate mean+SEM and statistical analysis.

Series [1] concerns active (cleaved) caspase-3. The experiment in a line: Immunostaining of the apoptosis marker active (cleaved) caspase-3. It is filed as in vivo, Sprague-Dawley rats. The note with it: Mode-3 painting, 14 days. The method, then: as §1
The subject of a further series is collagen. The series can be described thus: Masson's trichrome staining, collagen density in the artery. It is filed as in vivo, Sprague-Dawley rats. Conditions: Mode-1, 14 days. The method, then: Four to six cross-sections cut from different locations (see detailed description above) from the balloon-injured CCA per each animal were used for Masson's trichrome staining. The color images were transformed into monochrome images at an 8-bit scale using Image J. After adjusting the threshold consistent through the analysis, integrated density of interest was measured. Data values from 6 sections were averaged for each animal, and averages from total animals in a group were used to calculate mean+SEM and statistical analysis.

Regarding `CC(C)N(C[C@H]1O[C@@H](n2cnc3c(N)ncnc32)[C@H](O)[C@@H]1O)[C@H]1C[C@@H](CCc2nc3cc(C(C)(C)C)ccc3[nH]2)C1` [Pinometostat, pinometostat], the IH entry in the series on IH in a rat model is recorded as “reduced IH”.

`CO[C@H]1C[C@@H]2CC[C@@H](C)[C@@](O)(O2)C(=O)C(=O)N2CCCC[C@H]2C(=O)O[C@H]([C@H](C)C[C@@H]2CC[C@@H](O)[C@H](OC)C2)CC(=O)[C@H](C)/C=C(\C)[C@@H](O)[C@@H](OC)C(=O)[C@H](C)C[C@H](C)/C=C/C=C/C=C/1C` [Rapamycin]: the “number of CD68-positive cells” value in the series on CD68 (Mode-1 and Mode-2, 14 days) was “the difference was abolished”. Moreover, the “inflammation marker (CD68 staining)” value in the series with CD68 (Mode-3 painting, 14 days) is recorded as “reduced CD68 staining in the vessel wall”. For the same compound, in series [1], the “apoptosis marker (caspase-3 positive cells)” value was “lowered the overall number of caspase-3 positive cells”. Moreover, in the series with collagen, the “fibrosis (adventitial collagen accumulation)” value is listed as “alleviated this fibrotic severity”.

Source of the values: patent publication US12616656B2, “Adventitial painting modality of local drug delivery to abate intimal hyperplasia” (University of Virginia Patent Foundation, priority 2021, dated 2026).
